Like-named read-outs stand apart in the source and are kept apart here.
What was measured:
hair loss = assay: Topical use for hair loss prevention, effectiveness in patients; type: in vivo, human; details: same amount of minoxidil
From the text: […]. […] […]. After about thirty months of use, about half of the new hair growth falls out. Thus, while the user has somewhat more hair than originally, the user has less hair than […].
Minoxidil without a penetration enhancer (as available in ROGAINE™ topical minoxidil U.S.P.) produces a different kind of hair than does minoxidil used with a penetration enhancer.
Further, it is known in the art that minoxidil users experience a sudden drop in hair thickness after about thirty months of usage. I thus have sought the time at which my compounds have a sudden drop in effectiveness. […] That this function is abnormal is confirmed by its drop in effectiveness after thirty months; such a drop in efficacy indicates a “tolerance” acquired against the intervention, rather than the maintenance of a permanent, healthy state.
Using the specific formulations disclosed here, I have observed decreases in hair loss, and a consequent statistically significant increase in the amount of healthy mature hair, after 4.0-4.5 months on the frontal scalp. On the crown and back of the head, by contrast, I have observed statistically significant results after 4.5-5.0 months. The frontal scalp may react faster because it enjoys greater vascularization and blood flow than the other parts of the scalp.
I have found several surprising things about testosterone blockers. […]

[1] = cited from earlier work
age related hair loss = details: stump-tail macaque monkeys; cited from earlier work
scalp hair follicles = details: in vivo; cited from earlier work

For `Nc1cc(N2CCCCC2)nc(N)[n+]1[O-]` [minoxidil, 6-(1-piperidinyl)-2,4-pyrimidinediamaine 3-oxide], the “share of patients on whom the preparation is effective” value (hair loss) was 8%.
In the case of `CCC(CCCCC1CCC2CC(=O)CC12)OC` (stereo not shown) [Cioteronel, hexahydro-4-(5-methoxyheptyl)-2(1H)-pentalenone], the “solubility, in words” value ([1]; in lipid and relatively non-polar solvents) is given as “soluble”.
For `CC(=O)[C@H]1CC[C@H]2[C@@H]3CCC4=CC(=O)CC[C@]4(C)[C@H]3CC[C@]12C` [Progesterone, pregn-4-ene-3, 20-dione], the “solubility, in words” value ([1]; in alcohol, acetone, dioxane, and concentrated sulfuric acid) is listed as “soluble”, the “solubility, in words” value ([1]; in vegetable oils) is listed as “sparingly soluble” and the “solubility, in words” value ([1]; in water) is listed as “insoluble”.
For `CN(C)C(=O)C1CCC2C3CCC4N(C)C(=O)CCC4(C)C3CCC12C` (stereo not drawn) [17b-N,N,- dimethylcarbamoyl-4-methyl-4-aza-5α-androstan-3-one], the “age related hair loss versus untreated monkeys” value (age related hair loss) is given as “significantly less age related hair loss”.
For `CC(C)(C)NC(=O)[C@H]1CC[C@H]2[C@@H]3CC[C@H]4NC(=O)C=C[C@]4(C)[C@H]3CC[C@]12C` [finasteride], the “effect on scalp hair follicles / balding process” value (scalp hair follicles) is listed as “miniaturizes scalp hair follicles, reversing the balding process”.
